What was measured:
[1] = system: human cervical cancer cell line (HeLa); test: MTT in vitro tumor cell inhibition; format: cell-based; conditions: 3 days
Excerpt: (§1) An effective amount of the above compounds and/or the compositions containing the same used as an active ingredient have an effect on inhibiting the tumor cells. The present invention detects the inhibitory effect of the hydroxy-substituted benzophenone compounds on the proliferation of the in vitro cultured human tumor cells by the methylthiazolyl tetrazolium method.
(§2) The method is used to detect cell viability. […] Particles can be dissolved by dimethyl sulfoxide (DMSO) isopropyl alcohol or 10% acidified SDS (sodium dodecyl sulfate), and a microplate reader is used to measure the OD value at A570 wavelength, which indirectly reflects the number of live cells. The method is used for detection of the cytokines bioactivity, as well as anti-tumor drugs and tumor radiosensitivity and cytotoxicity test, and has the characteristics of being simple, fast, economical, sensitive and accurate and having good reproducibility and no need to use radionuclides. This method has been widely used in screening preclinical anticancer drugs and detecting the drug sensitivity of fresh tumor cells. The method is as below:
(§3) (1) The tumor cell suspension prepared by 0.25% of trypsin digestion and adjusted to a cell concentration of 10^5/ml with RPMI1640 containing 10% fetal calf serum is added to a 96-well plate with 100 μl for each well, cultured 24 hours, and then different dosages of drugs are added with 100 μl/well, for which, the negative control groups, positive control groups and withering wells are set, and 4 parallel wells are set for each group.
(§4) (2) They are continually cultured in incubator containing 5% of CO2 at 37° C. for 24 to 48 hours. MTT solution (5 g/L) is added to each well before the termination of the experiment. The OD value at A570 nm is detected by microplate reader. The OD value at A570 of the negative group without the addition of drugs is taken as a control. The cell survival rate and cell inhibition rate of drugs are calculated according to the following formula: Cell survival rate=(OD value of test group/OD value of control group)×100% Cell inhibition rate (%)=(OD value of the control group−OD value of the test group/(OD value of the control group−OD value of the blank group)
(§5) 1. Tumor cell lines: human glioma cell line (U251), human colon cancer cell line (LOVO), human hepatoma cell line (HepG2), human lung cancer cell line (PC84045), human endometrial carcinoma cell line (JEC), human renal carcinoma (GRC), human gastric cancer cell line (MCG804), human cervical cancer cell line (HeLa), human hepatocellular carcinoma cell line (BEL-7402) and human umbilical vein endothelial cell line (ECV304) purchased from Animal Experimental Center of Zhongshan Medical College, and preserved by the present laboratory.
(§6) The tumor cell lines are cultured in RPMI-1640 medium containing 15% of the newborn bovine serum in a conventional manner, placed in the humidification incubator containing 5% of CO2 for being cultured at 37° C., and are observed for growth by an inverted microscope. A subculture is conducted every about 3-5 days, the cells in logarithmic growth phase are adopted to be digested with 0.25% of trypsin, and the serum-free RPMI-1640 medium is used for culturing the cell suspension; the blood counting plate makes counting, the trypan blue exclusion tests the cell activity, and the cell viability>95% is used for formal tests.
(§7) Liquid preparation: the compounds are labeled with the codes respectively, DMSO is used to dissolve each compound, the bacterial filter is used to remove bacteria, and each compound is prepared into 10^−4 g/ml, 10^−5 g/ml, 10^−6 g/ml and preserved at 4° C. for use. […]

[2] = system: human lung cancer cell line (PC84045); test: MTT in vitro tumor cell inhibition; format: cell-based; conditions: 3 days
Excerpt: as §1, §2, §3, §4, §5, §6, §7

[3] = system: human gastric cancer cell line (MCG804); test: MTT in vitro tumor cell inhibition; format: cell-based; conditions: 3 days
Excerpt: as §1, §2, §3, §4, §5, §6, §7

[4] = system: human endometrial carcinoma cell line (JEC); test: MTT in vitro tumor cell inhibition; format: cell-based; conditions: 3 days
Excerpt: as §1, §2, §3, §4, §5, §6, §7

[5] = system: human glioma cell line (U251); test: MTT in vitro tumor cell inhibition; format: cell-based; conditions: 3 days
Excerpt: as §1, §2, §3, §4, §5, §6, §7

[6] = system: human hepatoma cell line (HepG2); test: MTT in vitro tumor cell inhibition; format: cell-based; conditions: 3 days
Excerpt: as §1, §2, §3, §4, §5, §6, §7

[7] = system: human colon cancer cell line (LOVO); test: MTT in vitro tumor cell inhibition; format: cell-based; conditions: 3 days; for Inhibitory rate %: 10^−4 g/ml
Excerpt: as §1, §2, §3, §4, §5, §6, §7

[8] = system: human umbilical vein endothelial cell line (ECV304); test: MTT in vitro cell inhibition; format: cell-based; conditions: 3 days
Excerpt: as §1, §2, §3, §4, §5, §6, §7

[9] = system: MCF7; test: MTT in vitro tumor cell inhibition; format: cell-based; conditions: 3 days
Excerpt: as §1, §2, §3, §4, §6
Liquid preparation: the compounds are labeled with the codes respectively, DMSO is used to dissolve each compound, the bacterial filter is used to remove bacteria, and each compound is prepared into 10^−4 g/ml, 10^−5 g/ml, 10^−6 g/ml and preserved at 4° C. for use.
MTT method: a bottle of 4-5 days old cells in the exponential growth phase are adopted to be cultured, and added with an appropriate amount of Trypsin-EDTA solution, so as to enable the adherent cells to fall off, and are prepared with 10 ml of RPMI-1640 medium containing 15% newborn bovine serum into suspensions; after stained with trypan blue, the cell number is counted on the blood counting plate to ensure that the live cells is more than 97%; the cell suspensions are diluted by the complete medium so that each […] of solution contains 5000-400000 cells; the 96-well plate is used with 200 μl of cell suspensions added into each. The 96-well plate is placed at 37° C. in 5% of CO2 containing incubator for 24 hours; the test compounds are diluted at 3 dilutions with 5 wells in parallel for each concentration; the serum-free RPMI1640 is used as the control group. […]

[10] = system: HPV16/18; test: HPV detection via fluorescence quantitative PCR in genital warts tissue homogenate; design: species or system human papillomavirus; conditions: genital warts tissue homogenate, 37° C., 24 hours, FQ-PCR
Excerpt: (§8) The aforesaid compounds and/or compositions containing the same are effective in killing and inhibiting HPV type 6/11 and type 16/18, which can be used for the preparation of drugs for preventing and treating viral infection of HPV, preventing and treating genital warts, flat warts, common warts, vaginitis, cervicitis and cervical erosion, cervical cancer, esophageal cancer and other cancers caused by HPV. The present invention observes the effect of active ingredients and products by the detection of the change in the amount of the HPV virus through the real-time quantitative PCR. Such method has been applied in several publications (Youling C A I, et al., Chinese STD/AIDS, 2002, 8: 2,108; Yuansheng W U, Ruijiang F A N, et al., Practical Application of Integrated Chinese and Western Medicine in Clinics, 2003, 3: 2,1).
(§9) The microemulsion obtained in example 1 is used as a test sample and saline for blank control.
(§10) The standard clinical genital warts specimens from a variety of patients after being cut off are washed with saline for removing bloods, and are cut into pieces under aseptic conditions, added with saline in 3 times of their volumes to be uniformly mixed, grinded into homogenate and placed at −40° C. for use.
(§11) Each test sample drug microemulsion and the saline of 50 μl for each are respectively added with 50 μl the genital warts tissue homogenate, and incubated at 37° C. for 24 hours; tests are performed according to the operation procedure provided by the HPV6, 11 and 16, 18 type FQ-PCR diagnostic kits provided by Da'an Gene Diagnostic Center. 0.2 ml of DNA extracted by the conventional alkaline lysis method is put into the thin-walled reaction tube, and simultaneously added with primers, F-PROBE, DNTP, DNA polymerase, buffers and the like in a certain concentration; ABI PRISM™ 7700 fluorescence quantitative PCR amplifier is used to repeat 40 circulations each with 45 s at 93° C. and 120 s at 55° C. after predegeneration at 93° C. for 2 mins; the quantitative results are automatically analyzed by the computer software to calculate the quantitative results of the initial copy number. The data are shown in Table 2 (completed by Da'an Gene Clinical Test Center).

[11] = system: HPV 6/11 Virus; test: as above; design: species or system human papillomavirus; conditions: genital warts tissue homogenate, 37° C., 24 hours, FQ-PCR
Excerpt: as §8, §9, §10, §11

Structure (SMILES) | Inhibitory rate % ([1]; 10^−4 g/ml) [%] | Inhibitory rate % ([2]; PC84045, 10^−4 g/ml) [%] | Inhibitory rate % ([2]; PC84045, 10^−5 g/ml) [%] | Inhibitory rate % ([2]; PC84045, 10^−6 g/ml) [%] | Inhibitory rate % ([3]; MCG804, 10^−4 g/ml) [%] | Inhibitory rate % ([4]; 10^−4 g/ml) [%] | Inhibitory rate % ([4]; 10^−5 g/ml) [%] | Inhibitory rate % ([5]; U251, 10^−4 g/ml) [%] | Inhibitory rate % ([6]; HepG2, 10^−4 g/ml) [%] | Inhibitory rate % ([6]; HepG2, 10^−5 g/ml) [%] | Inhibitory rate % [7] [%] | Inhibitory rate, sensitivity class ([7]; 10^−5 g/ml) | Inhibitory rate, sensitivity class ([7]; 10^−6 g/ml) | Inhibitory rate % ([8]; ECV304, 10^−4 g/ml) [%] | Inhibitory rate % ([8]; ECV304, 10^−5 g/ml) [%] | Inhibitory rate % ([9]; MCF7, 10^−4 g/ml) [%] | also measured
O=C(c1ccc(O)c(O)c1)c1cc(O)c(O)c(O)c1O [2,3,3′,4,4′,5-hexahydroxybenzophenone] | 58.94 | 80.43 | 70.86 | 41.369 | 71.91 | 79.84 | 32.36 | 64.27 | 77.03 | 55.49 | 75.61 | insensitive (<30% means insensitive) | insensitive (<30% means insensitive) | 70.81 | 43.47 | 65.36 | Inhibitory rate, sensitivity class ([1]; 10^−5 g/ml): insensitive (<30% means insensitive); Inhibitory rate, sensitivity class ([1]; 10^−6 g/ml): insensitive (<30% means insensitive); Inhibitory rate, sensitivity class ([3]; MCG804, 10^−5 g/ml): insensitive (<30% means insensitive); Inhibitory rate, sensitivity class ([3]; MCG804, 10^−6 g/ml): insensitive (<30% means insensitive); Inhibitory rate, sensitivity class ([4]; 10^−6 g/ml): insensitive (<30% means insensitive); Inhibitory rate, sensitivity class ([5]; U251, 10^−5 g/ml): insensitive (<30% means insensitive); Inhibitory rate, sensitivity class ([5]; U251, 10^−6 g/ml): insensitive (<30% means insensitive); Inhibitory rate, sensitivity class ([6]; HepG2, 10^−6 g/ml): insensitive (<30% means insensitive); Inhibitory rate, sensitivity class ([8]; ECV304, 10^−6 g/ml): insensitive (<30% means insensitive); Inhibitory rate, sensitivity class ([9]; MCF7, 10^−5 g/ml): insensitive (<30% means insensitive); Inhibitory rate, sensitivity class ([9]; MCF7, 10^−6 g/ml): insensitive (<30% means insensitive)
O=C(c1ccccc1)c1ccc(O)cc1O [2,4-dihydroxybenzophenone] | 95.65 | 92.65 | 89.88 | 44.39 | 92.54 | 93.58 | 62.30 | 85.31 | 94.78 | 66.74 | 93.80 | insensitive (<30% means insensitive) | insensitive (<30% means insensitive) | 96.17 | 73.12 | 87.60 | Inhibitory rate % ([1]; 10^−5 g/ml): 48.96%; Inhibitory rate % ([1]; 10^−6 g/ml): 37.32%; Inhibitory rate % ([3]; MCG804, 10^−5 g/ml): 86.35%; Inhibitory rate % ([3]; MCG804, 10^−6 g/ml): 41.35%; Inhibitory rate % ([4]; 10^−6 g/ml): 32.56%; Inhibitory rate % ([5]; U251, 10^−5 g/ml): 67.25%; Inhibitory rate % ([5]; U251, 10^−6 g/ml): 31.21%; Inhibitory rate % ([6]; HepG2, 10^−6 g/ml): 58.63%; Inhibitory rate % ([8]; ECV304, 10^−6 g/ml): 45.37%; Inhibitory rate % ([9]; MCF7, 10^−5 g/ml): 68.62%; Inhibitory rate % ([9]; MCF7, 10^−6 g/ml): 28.57%
CCCOC(=O)c1cc(O)c(O)c(O)c1 [Propyl gallate, propyl 3,4,5-trihydroxybenzoate, reference compound] | – | – | – | – | – | – | – | – | – | – | – | – | – | – | – | – | HPV16/18 [10]: 0 copy/ml; HPV 6/11 Virus [11]: 0 copy/ml

From US10716769B2 (GUANGZHOU JTREAT BIOSCI. LTD., priority 2015, dated 2020)
